Results published in ChEMBL document CHEMBL3988442, “University of Dundee, Small-Polar-MMV Screening Library” (2021).
Values joined by “and” are separate entries in the source; they are usually repeats but may differ in a detail not shown here. Identical values can stand only once.

Tests used:
[1] = target: T1, Coenzyme A biosynthesis bifunctional protein CoaBC (Mycobacterium tuberculosis (strain ATCC 25618 / H37Rv), UniProt P9WNZ1); test: Biomol Green assay for MtCoaBC inhibitor, OD650 read; format: functional
T1 sequence (P9WNZ1 whole entry): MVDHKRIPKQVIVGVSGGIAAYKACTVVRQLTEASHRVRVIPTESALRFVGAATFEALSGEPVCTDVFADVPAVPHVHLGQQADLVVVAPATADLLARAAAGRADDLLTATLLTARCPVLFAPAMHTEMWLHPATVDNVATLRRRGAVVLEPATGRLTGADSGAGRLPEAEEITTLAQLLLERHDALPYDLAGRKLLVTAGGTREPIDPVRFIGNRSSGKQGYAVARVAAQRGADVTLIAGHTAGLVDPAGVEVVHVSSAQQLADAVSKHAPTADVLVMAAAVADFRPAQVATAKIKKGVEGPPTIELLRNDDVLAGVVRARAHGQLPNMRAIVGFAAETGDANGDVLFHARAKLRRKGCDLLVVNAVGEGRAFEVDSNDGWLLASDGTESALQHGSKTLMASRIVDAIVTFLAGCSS

Leishmania donovani = test: Leishmania intramacrophage assay; format: functional, organism-based; conditions: for IC50: Leishmania donovani
[2] = microbe, parasite or virus in culture; conditions: Mycobacterium tuberculosis, 96 h, read-out: pIC50 (converted)
[3] = microbe, parasite or virus in culture; conditions: Mycobacterium tuberculosis, 72 h, read-out: pIC50 (converted)
Plasmodium falciparum = test: Calibr Malaria Delayed Death Assay SOP; format: functional, organism-based; conditions: for IC50: Plasmodium falciparum
Histidine--tRNA ligase = target: T2, Histidine--tRNA ligase (Leishmania infantum, UniProt A4I591); test: Leishmania infantum Histidine tRNA synthetase (LdHisRS); format: functional
T2 sequence (A4I591 whole entry): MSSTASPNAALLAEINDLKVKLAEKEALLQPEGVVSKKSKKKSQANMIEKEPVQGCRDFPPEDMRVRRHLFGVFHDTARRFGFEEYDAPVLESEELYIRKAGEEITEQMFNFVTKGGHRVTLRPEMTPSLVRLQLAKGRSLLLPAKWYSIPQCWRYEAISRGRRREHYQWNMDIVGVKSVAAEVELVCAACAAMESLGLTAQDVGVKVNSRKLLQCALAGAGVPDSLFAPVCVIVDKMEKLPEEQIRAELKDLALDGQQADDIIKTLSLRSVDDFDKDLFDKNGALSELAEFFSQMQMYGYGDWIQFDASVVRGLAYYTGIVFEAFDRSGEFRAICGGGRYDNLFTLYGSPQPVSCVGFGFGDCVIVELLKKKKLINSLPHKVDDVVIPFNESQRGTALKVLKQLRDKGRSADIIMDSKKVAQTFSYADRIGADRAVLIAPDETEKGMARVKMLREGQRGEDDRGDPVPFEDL

[4] = In vitro enzyme assay to detect hydrolysis of chlorophenol red-beta-D-[…] directly proportional to the number of Toxoplasma stably expressing beta-galactosidase; format: functional, organism-based, Toxoplasma gondii; conditions: for IC50: Toxoplasma gondii
Tryptophan--tRNA ligase = Tryptophan--tRNA ligase (Mycobacterium tuberculosis (strain ATCC 25618 / H37Rv), UniProt P9WFT3); test: Biochemical assay for Mt-TrpRS; format: functional
ClpP1P2 = ClpP1P2 (Mycobacterium tuberculosis (strain ATCC 25618 / H37Rv), UniProt P9WPC3+P9WPC5); test: in vitro assay to detect presence of AMC directly proportional to the activity of ClpP1P2. GHDDI collaboration.; format: functional

Compound | IC50 (Leishmania donovani) | pIC50 (Leishmania donovani) | pIC50 (Plasmodium falciparum) | IC50 (Plasmodium falciparum) | further results
CC(C)C1CN(C(=O)c2cn3cc(Cl)cnc3n2)CCCN1CC1CC1 (stereo not given) | – | – | – | – | IC50 [1]: > 30.2 µM
CN(C)c1nccc(C2CCCCN2Cc2cnn3cccnc23)n1 (stereo not given) | – | – | – | – | IC50 [1]: > 30.2 µM
O=C(c1c[nH]cn1)N1CCC(F)(F)C2(CCN(c3cccc(F)c3)C2)C1 (stereo not given) | > 50.1 µM | – | – | – | IC50 [2]: > 50.1 µM; IC50 [3]: > 50.1 µM
NCC1CCCN(c2nc(-c3ccccc3)nc3c2CCNCC3)C1 (stereo not given) | 27.2 µM | – | – | – | IC50 [2]: 17.7 µM; IC50 [3]: 11.3 µM
COCCC(=O)N1CC2(CCN(Cc3ccoc3)C2)C1 | – | – | – | – | IC50 [1]: > 30.2 µM
CC(O)CN1CCC(CNCc2cccc(OC(F)(F)F)c2)CC1 (stereo not given) | 16.8 µM | 4.85 | 6.17 | 0.909 µM | –
Cc1nc(CCN)cc(N2CCC(O)(c3ccc(Cl)cc3)CC2)n1 | > 50.1 µM | – | – | – | IC50 (Histidine--tRNA ligase): 46.4 µM and 42.8 µM
CCOC(=O)N1CCN(c2nc(CCN)nc3sc(C)c(C)c23)CC1 | > 50.1 µM | – | 5.898 | 1.12 µM | IC50 (Histidine--tRNA ligase): 21.8 µM and 19.6 µM
COc1cccc(CNC(CN2CCN(C)CC2)c2ccccc2)c1 (stereo not given) | 22 µM | 4.672 | 6.596 | 0.308 µM | –
COc1ccc(-c2cccc3c2OC(CN)C3)cc1F (stereo not given) | 22.2 µM | 4.618 | – | – | IC50 [2]: 34.7 µM; IC50 [3]: > 50.1 µM
Cn1cc(CN2CCC(F)(F)C3(CCN(c4cnccn4)C3)C2)cn1 (stereo not given) | > 50.1 µM | – | – | – | IC50 [2]: > 50.1 µM; IC50 [3]: > 50.1 µM
CC(O)CN1CCC(CNCc2ccc(OC(F)(F)F)cc2)CC1 (stereo not given) | 9.27 µM | 5.001 | 5.989 | 0.959 µM | –
C1Cc2nc(CCNc3nc(C4CC4)nc4c3CCNCC4)sc2C1 | 5.69 µM | 5.261 and 5.322 | – | – | IC50 [4]: 12.6 µM
Cc1ccc(-c2nc(CNC(C)CCO)[nH]c2-c2ccccn2)cc1 (stereo not given) | – | 4.821 and 4.459 | 5.824 | 1.25 µM | –
Cc1c(C(=O)N2CCC(N3CCCCC3)CC2)n(C)c2ccc(Cl)cc12 | 13.5 µM | 4.818 | 6.009 | 1.07 µM | –
Cc1cccc(CNC(CN2CCN(C)CC2)c2ccccc2)c1 (stereo not given) | 6.36 µM | 5.046 | 6.605 | 0.185 µM | –
O=C(NCCCN1CCCCC1)c1ccc(-n2ccc3ccccc32)s1 | 7.13 µM | 5.277 | – | – | IC50 [4]: 6.04 µM; IC50 [2]: > 50.1 µM; IC50 [3]: 28.1 µM
Clc1ccccc1C1(c2ccnc(C3CC3)n2)CCNCC1 | 23.9 µM | – | 6.224 | 0.536 µM | pIC50 [4]: 4.703; IC50 [4]: 15.4 µM
CCN(CCN(C)C)c1nc(CCN)nc2sc(C)c(C)c12 | > 50.1 µM | – | 5.974 | 1.21 µM | IC50 (Histidine--tRNA ligase): 49.3 µM and 36.3 µM
CN1CCC(N(Cc2ccco2)S(=O)(=O)c2ccc(Br)cc2Cl)CC1 | 20.9 µM | 4.643 | 6.36 | 0.473 µM | –
Cc1ccc(-c2cc(CNc3ncnc4c3CCNCC4)no2)cc1 | 8.55 µM | 4.865 | – | – | IC50 [4]: 9.58 µM
O=C(C1CNCCO1)N1CCCC(c2ccccc2)(c2ccccc2)C1 (stereo not given) | 11.6 µM | 4.781 | 6.124 | 0.975 µM | –
N[C@@H]1CCC[C@@H](Oc2ccc(F)cc2Oc2ccccc2)[C@@H]1O | 11.2 µM | 4.886 | 6.155 | 0.602 µM | IC50 (Tryptophan--tRNA ligase): > 195 µM
CC(C)CNc1nc2c(cc1C(=O)NCC1CC1)CCNCC2 | 17.7 µM | 4.725 | – | – | IC50 (ClpP1P2): > 100 µM
CCOc1c(Cl)cc(Cl)cc1CNCCCn1ccnc1 | 16 µM | – | – | – | IC50 (Histidine--tRNA ligase): > 100 µM
Cc1ccc2[nH]c(-c3cn(C4CCNCC4)nn3)nc2c1C | 20.4 µM | 4.614 | 6.454 | 0.325 µM | –
CCN(CC)CCNC(=O)c1ccc(-n2ccc3ccccc32)s1 | 11.2 µM | – | – | – | IC50 [4]: 7.53 µM
Cc1nccn1CCCn1cncc1-c1ccc2c(c1)CC(C)N2C (stereo not given) | > 50.1 µM | – | – | – | IC50 (Histidine--tRNA ligase): 20.5 µM and 22.8 µM
Cc1nc(C2CCN(C)CC2)cc(N2CCOc3ccc(Cl)cc3C2)n1 | 14.9 µM | 4.959 | – | – | IC50 [2]: > 50.1 µM; IC50 [3]: 32.6 µM
